GI50 and TGI data for 5 molecules are collected here from PubChem BioAssay (NCI).

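Tested at 5 concentrations; 48 h exposure; 96-well plates; endpoints linearly interpolated, else capped at highest concentration. The concentration for 50% growth inhibition is given as GI50. Definition used: TGI = concentration required for complete inhibition of growth.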 Bounds are passed on as bounds.

Some test systems named below: HCC-2998 colon; SNB-19 CNS; 786-0 renal; SK-MEL-28 melanoma; UACC-257 melanoma; UACC-62 melanoma; OVCAR-8 ovarian; SN12C renal; NCI-H23 lung; MDA-MB-231 breast.
Assay in all cases: NCI anticancer screen, dose series, 48 h

As to `O=C(/C=C/C12c3ccccc3C(c3ccccc31)C1C(=O)NC(=O)C12)c1ccc(Cl)cc1Cl` (stereo not given), the GI50 in the experiment on HCC-2998 colon is 1.81 µM; with SNB-19 CNS, 1.62 µM; with 786-0 renal, 1.7 µM; in the experiment on SK-MEL-28 melanoma, 1.78 µM; in the experiment on UACC-257 melanoma, 1.76 µM; in the experiment with UACC-62 melanoma, 1.67 µM. Moreover, the GI50 with OVCAR-8 ovarian was 1.88 µM; with SN12C renal, 1.77 µM; in the experiment with NCI-H23 lung, 2.02 µM; with MDA-MB-231 breast it was 2.31 µM. Besides, the TGI in the experiment with HCC-2998 colon amounted to 3.41 µM; in the experiment with SNB-19 CNS, 3.03 µM; in the experiment on 786-0 renal, 3.22 µM; with SK-MEL-28 melanoma it was 3.27 µM; with UACC-257 melanoma, 3.46 µM; with UACC-62 melanoma, 3.18 µM. In addition, the TGI is 3.98 µM with OVCAR-8 ovarian, 3.29 µM in the experiment on SN12C renal, 4.1 µM with NCI-H23 lung and 5.82 µM in the experiment with MDA-MB-231 breast.
In the case of `C=CCn1c(C)nc2ccc(Nc3nc(Nc4ccc(F)cc4)nc4ccccc34)cc21`, the GI50 in the experiment on HCC-2998 colon was 8.87 µM; in the experiment with SNB-19 CNS, 9 µM; in the experiment with 786-0 renal, 7.44 µM; in the experiment with SK-MEL-28 melanoma, 1.65 µM; in the experiment with UACC-257 melanoma, 13.1 µM; in the experiment with UACC-62 melanoma, 1.8 µM. For the same molecule, the GI50 with OVCAR-8 ovarian is 3.05 µM; in the experiment on SN12C renal it was 2.78 µM; with NCI-H23 lung, 4.23 µM; with MDA-MB-231 breast, 2.37 µM. Further, the TGI was 23.5 µM in the experiment with HCC-2998 colon; 23.8 µM in the experiment on SNB-19 CNS; 23.8 µM with 786-0 renal; 3.13 µM in the experiment with SK-MEL-28 melanoma; 29.9 µM in the experiment on UACC-257 melanoma; 3.7 µM with UACC-62 melanoma. Moreover, the TGI worked out at 13.6 µM with OVCAR-8 ovarian, 15.1 µM in the experiment on SN12C renal, 26 µM in the experiment on NCI-H23 lung and 8.24 µM with MDA-MB-231 breast.
Regarding `O=C(Nc1cc(C(F)(F)F)ccc1Cl)c1ccc(NC2=C(Cl)C(=O)N(Cc3ccccc3)C2=O)cc1`, the GI50 in the experiment on HCC-2998 colon was 5.28 µM; in the experiment with SNB-19 CNS, 30.4 µM; in the experiment on 786-0 renal it was 23.4 µM; in the experiment with SK-MEL-28 melanoma, 23.9 µM; in the experiment on UACC-257 melanoma, 31.7 µM; in the experiment with UACC-62 melanoma, 16.7 µM. For the same molecule, the GI50 with OVCAR-8 ovarian was 14.6 µM; in the experiment on SN12C renal, 19.6 µM; with NCI-H23 lung it was 18.9 µM; with MDA-MB-231 breast, 18.8 µM. Besides, the TGI in the experiment on HCC-2998 colon is 9.11 µM; with SNB-19 CNS it was > 100 µM; in the experiment on 786-0 renal, > 100 µM; in the experiment with SK-MEL-28 melanoma, 63.5 µM; in the experiment on UACC-257 melanoma, 96.9 µM; in the experiment with UACC-62 melanoma it was 38.9 µM. The TGI in the experiment with OVCAR-8 ovarian stood at 41.3 µM; with SN12C renal, 61.2 µM; in the experiment with NCI-H23 lung, 43.9 µM; in the experiment with MDA-MB-231 breast it was 69.2 µM.
In the case of `Cc1ncc(C(=O)Nc2ccc(CN3CCN(C)CC3)c(C(F)(F)F)c2)cc1C#Cc1cnc2cccnn12`, the GI50 is 0.446 µM in the experiment on HCC-2998 colon; 1.22 µM in the experiment with SNB-19 CNS; 1.05 µM in the experiment on 786-0 renal; 0.212 µM in the experiment with SK-MEL-28 melanoma; 0.531 µM in the experiment with UACC-257 melanoma; 0.28 µM in the experiment with UACC-62 melanoma. For the same molecule, the GI50 is 0.339 µM in the experiment with OVCAR-8 ovarian, 0.288 µM in the experiment on SN12C renal, 0.221 µM in the experiment on NCI-H23 lung and 0.205 µM in the experiment with MDA-MB-231 breast. Also, the TGI in the experiment on HCC-2998 colon came out at 4.28 µM; with SNB-19 CNS it was 5.63 µM; in the experiment on 786-0 renal, 3.16 µM; with SK-MEL-28 melanoma, 1.84 µM; in the experiment with UACC-257 melanoma, 4.43 µM; in the experiment with UACC-62 melanoma, 1.32 µM. For the same molecule, the TGI in the experiment with OVCAR-8 ovarian came out at 5.98 µM; in the experiment on SN12C renal it was 3.94 µM; in the experiment with NCI-H23 lung, 1.01 µM; in the experiment on MDA-MB-231 breast, 4.15 µM.
As for `O=S(=O)(NCCNc1nccc(-c2c(-c3ccc(F)c(O)c3)nc3sccn23)n1)c1ccc(F)cc1`, the GI50 in the experiment with HCC-2998 colon was 4.45 µM; in the experiment with SNB-19 CNS, 4.26 µM; in the experiment with 786-0 renal, 3.21 µM; in the experiment with SK-MEL-28 melanoma, 0.429 µM; with UACC-257 melanoma, 1.71 µM; in the experiment with UACC-62 melanoma it was 0.587 µM. In addition, the GI50 is 4.25 µM in the experiment with OVCAR-8 ovarian, 2.83 µM in the experiment with SN12C renal, 4.07 µM with NCI-H23 lung and 2.23 µM in the experiment on MDA-MB-231 breast. Also, the TGI with HCC-2998 colon is 17.2 µM; in the experiment with SNB-19 CNS, > 100 µM; in the experiment with 786-0 renal it was > 100 µM; with SK-MEL-28 melanoma, 21.9 µM; in the experiment with UACC-257 melanoma it was 18.3 µM; in the experiment with UACC-62 melanoma it was 9.82 µM. The TGI in the experiment on OVCAR-8 ovarian was 48 µM; with SN12C renal, 71.5 µM; with NCI-H23 lung, 22.4 µM; in the experiment with MDA-MB-231 breast, > 100 µM.
